This is an account of results in paper PMC4926499, “TSPO Ligand-Methotrexate Prodrug Conjugates: Design, Synthesis, and Biological Evaluation” (International Journal of Molecular Sciences, 2016).

The term melting point denotes the temperature of the solid-liquid transition. The IC50 is the concentration that gives 50% inhibition. In general, Papp refers to a coefficient for how fast a substance crosses the barrier. Low readings indicate slow passage, high ones fast passage.

For data set [1], the target named is T1, TSPO (Rattus norvegicus, UniProt P16257).
T1 construct: from tissue; host or cells: rat cerebral cortex membranes
The data set is described as follows: Radioligand binding assay, displacement of [3H]-PK 11195 from rat cerebral cortex membranes. The settings on record: for SI (selectivity index): IC50(CBR)/IC50(TSPO); for IC50: rat cerebral cortex membranes, [3H]-PK 11195. The protocol: (§1) The IC50 values were determined from the displacement curves using the reference compound [^3H]-PK 11195, for TSPO, or [^3H]flunitrazepam for CBR. The data obtained, expressed as IC50 values, as well as the ratios between CBR and TSPO affinity, respectively (Selectivity Index, SI), as a measure of the in vitro selectivity, are shown in Table 2 and were compared with unlabeled TSPO selective ligand PK 11195, and with CBR selective ligand flunitrazepam. […] Moreover, the SI of TSPO-ligand MTX conjugate 3 is similar to the reference compound PK 11195. […] Thus, the binding quantification of TSPO ligands is confounded by the expression of different forms of TSPO and to assess the potentially therapeutic use of TSPO-ligands would be appropriate to genetically test the patients.
(§2) Binding assays ([^3H]Flunitrazepam and [^3H]PK 11195 bindings) were assessed to membrane preparations from rat cerebral cortex as described previously. The IC50 values (GraphPad Prism software, (La Jolla, CA, USA)) were determined from the displacement curves using the reference compound [^3H]-PK11195, for TSPO or [^3H]flunitrazepam, for CBR, respectively. The selectivity index (SI) was calculated from: IC50(CBR)/IC50(TSPO).

Data set [2] addresses central-type benzodiazepine receptor (CBR). The data set is described as follows: Radioligand binding assay, displacement of [3H]flunitrazepam from rat cerebral cortex membranes. As to the method: as §1, §2
On the technique in general: In a radioligand displacement assay an active substance lowers the binding of a labelled ligand.

Another data set deals with C6 rat glioma cells. Kind of data set: Cytotoxicity by MTT assay, C6 cells. The format is cell-based. The settings on record: Glioma cell, 24 h exposure. From the text:
(§3) These cellular lines were selected for their high expression level of TSPO and, therefore, have been used extensively for in vitro experiments on the brain tumor models and for cytotoxicity studies relating to anticancer drugs, as well as TSPO-ligands and its nanodevices. The tested compounds show high cytotoxicity on all cell lines, especially for C6 rat glioma cells. In particular, the TSPO-ligand MTX α-conjugates 3 appears to be the most cytotoxic displaying a lower IC50 value compared to MTX on C6 cells.
(§4) Rat RG2 and C6 glioma cells were grown in DMEM (Dulbecco’s modified Eagle’s medium, Sigma Aldrich, Milano, Italy) nutrient supplemented with 10% heat inactivated FBS (Fetal Bovine Serum, Sigma Aldrich), 2 mM, L-glutamine, penicillin (100 U/mL), and streptomycin (100 µg/mL) at 37 °C in a humidified 5% CO2 atmosphere. Cells were fed every day and seeded in 96-well plates at a density of ~5000 cells/well for assays. MTX and TSPO ligand-MTX conjugates were dissolved in DMSO at initial concentrations of 1000 µg/mL and then diluted with medium. Cells were exposed to different concentrations of compounds (0.1–1000 nM) for 24 h.
(§5) Cell viability was evaluated by MTT (3-(4,5-dimethylthiazol-2-yl)-2,5-diphenyltetrazolium bromide) assay as previously described. In brief, 10 µL of MTT (5.0 mg/mL) was added to the cells and cultured at 37 °C, in a humidified 5% CO2 atmosphere for 2 h. After this period, medium was removed and the cells were replaced with 150 µL of a DMSO/ethanol (1:1) solution per well. The absorbance of the individual well was measured by microplate reader (Wallac Victor3, 1420 Multilabel Counter, Perkin-Elmer (Waltham, MA, USA). All experiments were repeated three times and each compound’s concentration was tested in triplicate.
A general note: Tetrazolium dyes change colour on reduction, which living cells bring about.

The next data set concerns SF188 human glioma cells. The data set is described as follows: Cytotoxicity by MTT assay, SF188 cells. Format: cell-based. The settings on record: SF-188.
Data set [3] in a line: Stability in diluted rat serum solution (50% v/v) at 37 °C. Format: in vitro ADME. The settings on record: diluted rat serum (50% v/v), pH 7.4, 50% v/v rat serum, pH 7.4, 37 °C, read-out: t1/2 (h) Diluted Rat Serum. As to the method:
(§6) The chemical stability of the TSPO-ligand MTX conjugates 3 and 4 was evaluated in 50 mM phosphate buffer solution at pH 7.4 and 37 °C; the physiological stability was also determined using a dilute rat serum solution (50% v/v) at 37 °C. The aim of this work is the synthesis of TSPO ligand-MTX conjugates in order to improve the plasma stability and having less side effects than MTX. In addition TSPO ligand-MTX conjugates could enhance the transport across BBB and due a tumor targeting effect for the TSPO moiety, might selectively deliver the antineoplastic agent to brain tumors and prolong its efficacy. The TSPO-ligand MTX conjugates 3 and 4 are stable in buffer solution at pH 7.4 and enough stable in physiological medium with their half-lives exceeding 3 h. […] In addition, CB86 (m/z = 407, [M + Na]^+) (Figure 1), most likely originating from the degradation of ligand 2, as previously shown, could be detected. Other products arising from the further degradation of the anticancer drug were found.
The TSPO ligand-MTX conjugates 3 and 4 stabilities in physiological medium were studied at 37 °C in 0.05 M phosphate buffer and 0.14 M NaCl at pH 7.4, containing 50% v/v of rat serum. […] Samples were centrifuged at 3500 rpm for 10 min, and the supernatant was removed, filtered through cellulose acetate membranes (0.22 µm, Advantec MFS) and then 20 µL of filtrates were immediately analyzed by HPLC. […]

For a further data set, the system named is SF126 human glioma cells. The data set is described as follows: Cytotoxicity by MTT assay, SF126 cells. Format: cell-based. The following applies: SF-126.
The next data set relates to RG2 rat glioma cells. The data set is described as follows: Cytotoxicity by MTT assay, RG2 cells. The following applies: Glioma cell, 24 h exposure. Format: cell-based.
Text: as §3, §4, §5

Data set [4] is described as follows: Chemical stability in 50 mM phosphate buffer pH 7.4 at 37 °C. The format is physicochemical. The following applies: 0.05 M phosphate buffer pH 7.4, 37 °C; read-out: t1/2 (h) PBS (converted). As to the method:
as §6
TSPO ligand-MTX conjugates 3 and 4 chemical stabilities were studied at pH 7.4 in 0.05 M phosphate buffer at 37 °C. […] At appropriate time intervals, aliquots of 100 µL of each sample were removed, filtered through cellulose acetate membranes (0.22 µm, Advantec MFS, Pleasanton, CA, USA), and then 20 µL of filtrates were immediately analyzed by HPLC. […]

Data set [5] is described as follows: Transport across MDCKII-MDR1 cell monolayer. The following applies: dog, MDCK-MDR1, pH 7.4.
Description: (§7) The apparent permeability coefficient (Papp) of each compound was calculated on the basis of the amounts permeated through MDCKII-MDR1 monolayer by the equation: Papp=VA dC/A[D]in dt where VA (dC/dt) is the linear appearance rate of mass in the receiver solution; A is the filter/cell surface area and [D]in is the initial tested compound concentration in the apical (AP) chamber. The Papp values were evaluated in apical to basolateral direction. […] On an experimental day, the integrity of the cell monolayer was assessed by measuring the transendothelial electrical resistance (TEER) value.
(§8) The bi-directional transport study was conducted as previously reported [15]. A Transwell® 12 plate consisting of differentiated MDCKII-MDR1cells plated on polyester microporous filters (12 mm diameter, 0.4 µm pore size, 0.5 mL apical volume, 1.5 mL basolateral volume) at a density of 100,000 cells/cm^2, was used for the permeability assay. The integrity of the cell monolayer was assessed by measuring the TEER value in each well, using an epithelial volt-ohm meter (EVOM). Cell monolayers with TEER 120–140 Ohm/cm^2 were used. […] Fresh assay medium was placed in the receiver compartment. […] After incubation time of 2 h, samples were removed from the apical side of the monolayer and then analyzed. […] All experiments were repeated three times and each compound was tested in triplicate.
A further data set is described as follows: in vitro. The settings on record: dog, MDCK-MDR1, pH 7.4.
The target in data set [6] is central-type benzodiazepine receptor (CBR). The settings on record: rat cerebral cortex membranes, [3H]flunitrazepam; cited from earlier work.
For data set [7], the target named is T1, TSPO. The settings on record: cited from earlier work.

Read-outs that look alike come from different tables or passages of the source.

Description for in vitro: as §7, §8

With `CCCN(CCC)C(=O)Cc1c(-c2ccc(Cl)cc2)nc2c(NC(=O)CNC(=O)C(CCC(=O)O)NC(=O)c3ccc(N(C)Cc4cnc5nc(N)nc(N)c5n4)cc3)cccn12` (centres unmarked) [Compound 3, 5-(2-(2-(4-Chlorophenyl)-3-(2-(dipropylamino)-2-oxoethyl)imidazo[1,2-a]pyridin-8-ylamino)-2-oxoethylamino)-4-(4-(((2,4-diaminopteridin-6-yl)methyl)(methyl)amino)benzamido)-5-oxopentanoic acid], the melting point is 210 °C (dec.). In addition, on TSPO [1], the “SI (selectivity index)” value was >1.4 × 10^4 and the IC50 came to 7.2 ± 2.1 nM. Further, the IC50 in data set [2] is above 100000 nM. In the data set with C6 rat glioma cells, this compound gave an IC50 of 1.2 ± 0.7 nM. Also, the IC50 in the data set with SF188 human glioma cells was 9.2 ± 3.4 nM. Further, in data set [3], the half-life was above 3 h. This compound also yielded an IC50 in the data set on SF126 human glioma cells of 14.2 ± 4.2 nM. The compound also returned an IC50 in the data set on RG2 rat glioma cells of 4.2 ± 3.2 nM. Moreover, the half-life in data set [4] was 144 ± 25 h. Besides, the Papp at 2 h, 75 µM in [5] amounted to 3.65 ×10⁻⁶ cm/s.

In the case of `CN(Cc1cnc2nc(N)nc(N)c2n1)c1ccc(C(=O)N[C@@H](CCC(=O)O)C(=O)O)cc1` [MTX, 2,4-diamino-N^10-methylpteroylglutamic acid, reference compound], in the data set “in vitro”, the Papp at 2 h, 75 µM is 0.091 ×10⁻⁶ cm/s. Also, the half-inhibitory concentration (IC50) amounted to 2.6 ± 0.8 nM with C6 rat glioma cells, 1.2 ± 0.2 nM in the data set on SF188 human glioma cells, 1.2 ± 0.3 nM in the data set on SF126 human glioma cells and 3.8 ± 1.5 nM in the data set on RG2 rat glioma cells.

In the case of `CN1C(=O)CN=C(c2ccccc2F)c2cc([N+](=O)[O-])ccc21` [Flunitrazepam], in data set [6], the IC50 is 5.1 ± 0.5 nM.

For `CCC(C)N(C)C(=O)c1cc2ccccc2c(-c2ccccc2Cl)n1` (centres unmarked) [PK11195], the IC50 in data set [6] is above 100000 nM.

`CCCN(CCC)C(=O)Cc1c(-c2ccc(Cl)cc2)nc2c(NC(=O)CN)cccn12` [Compound 2, N,N-dipropyl-[2-(8-(2-aminoacetamido)-2-(4-chlorophenyl)imidazo[1,2-a]pyridin-3-yl)]acetamide]: the IC50 in data set [6] was above 100000 nM; at TSPO [7] (read-out: IC50 (nM) TSPO Cortex, rat cerebral cortex membranes, [3H]-PK 11195), 24 ± 4.2 nM. Moreover, at TSPO [7] (IC50(CBR)/IC50(TSPO)), the “SI (selectivity index)” value is reported as >4.1 × 10^3.

As to `CCCN(CCC)C(=O)Cc1c(-c2ccc(Cl)cc2)nc2c(NC(=O)CNC(=O)CCC(NC(=O)c3ccc(N(C)Cc4cnc5nc(N)nc(N)c5n4)cc3)C(=O)O)cccn12` (centres unmarked) [Compound 4, 5-(2-(2-(4-Chlorophenyl)-3-(2-(dipropylamino)-2-oxoethyl)imidazo[1,2-a]pyridin-8-ylamino)-2-oxoethylamino)-2-(4-(((2,4-diaminopteridin-6-yl)methyl)(methyl)amino)benzamido)-5-oxopentanoic acid], the melting point is 190 °C (dec.). In addition, at TSPO [1], the “SI (selectivity index)” value was >2.5 × 10^3 and the IC50 was found to be 40.3 ± 3.8 nM. The compound also returned an IC50 in [2] above 100000 nM. In the data set with C6 rat glioma cells, this compound came in with an IC50 of 2.2 ± 0.6 nM. In the data set with SF188 human glioma cells, this compound registered an IC50 of 18.2 ± 2 nM. The half-life in data set [3] is above 3 h. Inhibition in the data set with SF126 human glioma cells was half-maximal at 25 ± 2.6 nM (IC50). The IC50 in the data set with RG2 rat glioma cells stood at 15.2 ± 2.9 nM. The half-life in data set [4] was 74 ± 12 h. Moreover, the Papp at 2 h, 75 µM in data set [5] came to 3.32 ×10⁻⁶ cm/s.
